Assay results reported in ChEMBL document CHEMBL5370585, “Exploration and Biological Evaluation of 1,3-Diamino-7H-pyrrol[3,2-f]quinazoline Derivatives as Dihydrofolate Reductase Inhibitors” (J Med Chem, 2023).
≈ marks a conversion by molar mass, not a printed value.

How the values were obtained:
Staphylococcus aureus [1] = assay: Antibacterial activity against methicillin-sensitive Staphylococcus aureus ATCC 29213 incubated for 16 to 18 hrs by CLSI based broth dilution method; type: functional; conditions: time 16-18 hrs
MCF7 = assay: Cytotoxicity against human MCF7 cells measured after 72 hrs by MTT assay; type: functional, cell-based; conditions: MCF7, 72 h
Enterococcus faecalis [2] = assay: Antibacterial activity against Enterococcus faecalis EFA19-2 incubated for 16 to 18 hrs by CLSI based broth dilution method; type: functional; conditions: time 16-18 hrs
HGC-27 = assay: Cytotoxicity against human HGC-27 cells measured after 72 hrs by MTT assay; type: functional, cell-based; conditions: HGC-27, 72 h
Staphylococcus aureus [3] = assay: Antibacterial activity against methicillin-sensitive Staphylococcus aureus 15-2 incubated for 16 to 18 hrs by CLSI based broth dilution method; type: functional; conditions: time 16-18 hrs
Klebsiella pneumoniae [4] = assay: Antibacterial activity against Klebsiella pneumoniae 15-1 assessed as reduction in microbial growth incubated for 16 to 18 hrs by CLSI based broth dilution method; type: functional; conditions: time 16-18 hrs
Enterococcus = assay: Antibacterial activity against Vancomycin-resistant Enterococcus ATCC 51575 incubated for 16 to 18 hrs by CLSI based broth dilution method; type: functional; conditions: time 16-18 hrs
HepG2 = assay: Cytotoxicity against human HepG2 cells measured after 72 hrs by MTT assay; type: functional, cell-based; conditions: HepG2, 72 h
Enterococcus faecalis [5] = assay: Antibacterial activity against Enterococcus faecalis ATCC 29212 incubated for 16 to 18 hrs by CLSI based broth dilution method; type: functional; conditions: time 16-18 hrs
Acinetobacter baumannii [6] = assay: Antibacterial activity against Acinetobacter baumannii ATCC 19606 assessed as reduction in microbial growth incubated for 16 to 18 hrs by CLSI based broth dilution method; type: functional; conditions: time 16-18 hrs
Klebsiella pneumoniae [7] = assay: Antibacterial activity against Klebsiella pneumoniae ATCC 700603 assessed as reduction in microbial growth incubated for 16 to 18 hrs by CLSI based broth dilution method; type: functional; conditions: time 16-18 hrs
Staphylococcus aureus [8] = assay: Antibacterial activity against methicillin-resistant Staphylococcus aureus ATCC 43300 incubated for 16 to 18 hrs by CLSI based broth dilution method; type: functional; conditions: time 16-18 hrs
Staphylococcus aureus [9] = assay: Antibacterial activity against methicillin-resistant Staphylococcus aureus ATCC 33591 incubated for 16 to 18 hrs by CLSI based broth dilution method; type: functional; conditions: time 16-18 hrs
[10] = system: Staphylococcus epidermidis; assay: Antibacterial activity against Staphylococcus epidermidis ATCC 12228 incubated for 16 to 18 hrs by CLSI based broth dilution method; type: functional; conditions: time 16-18 hrs
Acinetobacter baumannii [11] = assay: Antibacterial activity against Acinetobacter baumannii 20-1 incubated for 16 to 18 hrs by CLSI based broth dilution method; type: functional; conditions: time 16-18 hrs
Escherichia coli [12] = assay: Antibacterial activity against Escherichia coli ECO 15-1 incubated for 16 to 18 hrs by CLSI based broth dilution method; type: functional; conditions: time 16-18 hrs
Escherichia coli [13] = assay: Antibacterial activity against Escherichia coli ATCC 25922 incubated for 16 to 18 hrs by CLSI based broth dilution method; type: functional; conditions: time 16-18 hrs
Enterococcus faecalis [14] = assay: Antibacterial activity against Enterococcus faecalis EFA19-1 incubated for 16 to 18 hrs by CLSI based broth dilution method; type: functional; conditions: time 16-18 hrs
Acinetobacter baumannii [15] = assay: Antibacterial activity against Acinetobacter baumannii ATCC 19606 incubated for 16 to 18 hrs by CLSI based broth dilution method; type: functional; conditions: time 16-18 hrs
HCT-116 = assay: Cytotoxicity against human HCT-116 cells measured after 72 hrs by MTT assay; type: functional, cell-based; conditions: HCT-116, 72 h
Staphylococcus aureus [16] = assay: Antibacterial activity against vancomycin intermediate Staphylococcus aureus ATCC 700788 incubated for 16 to 18 hrs by CLSI based broth dilution method; type: functional; conditions: time 16-18 hrs
Escherichia coli [17] = assay: Antibacterial activity against Escherichia coli ATCC BAA-2340 incubated for 16 to 18 hrs by CLSI based broth dilution method; type: functional; conditions: time 16-18 hrs
Staphylococcus aureus [18] = assay: Antibacterial activity against Staphylococcus aureus ATCC 29213 incubated for 16 to 18 hrs by CLSI based broth dilution method; type: functional; conditions: time 16-18 hrs
Pseudomonas aeruginosa = assay: Antibacterial activity against Pseudomonas aeruginosa ATCC 27853 incubated for 16 to 18 hrs by CLSI based broth dilution method; type: functional; conditions: time 16-18 hrs
Staphylococcus aureus [19] = assay: Antibacterial activity against methicillin-sensitive Staphylococcus aureus ATCC 25923 incubated for 16 to 18 hrs by CLSI based broth dilution method; type: functional; conditions: time 16-18 hrs
Acinetobacter baumannii [20] = assay: Antibacterial activity against Acinetobacter baumannii 20-2 incubated for 16 to 18 hrs by CLSI based broth dilution method; type: functional; conditions: time 16-18 hrs
Staphylococcus aureus [21] = assay: Antibacterial activity against methicillin-sensitive Staphylococcus aureus 15-1 incubated for 16 to 18 hrs by CLSI based broth dilution method; type: functional; conditions: time 16-18 hrs
Staphylococcus aureus [22] = assay: Antibacterial activity against vancomycin intermediate Staphylococcus aureus ATCC 700699 incubated for 16 to 18 hrs by CLSI based broth dilution method; type: functional; conditions: time 16-18 hrs
[23] = target: T1, Dihydrofolate reductase (Homo sapiens) (UniProt P00374); assay: Inhibition of human DHFR at 1 uM incubated for 10 mins in presence of NADPH by colorimetry based analysis relative to control
T1 sequence (whole entry): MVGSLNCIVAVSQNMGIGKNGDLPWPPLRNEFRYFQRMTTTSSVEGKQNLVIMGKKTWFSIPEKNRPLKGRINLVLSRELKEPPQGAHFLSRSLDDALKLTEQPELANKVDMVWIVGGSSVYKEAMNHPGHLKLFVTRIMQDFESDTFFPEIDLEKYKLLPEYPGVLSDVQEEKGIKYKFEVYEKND

SMILES | MIC (Staphylococcus aureus [1]) | IC50 (MCF7) | MIC (Enterococcus faecalis [2]) | IC50 (HGC-27) | MIC (Staphylococcus aureus [3]) | MIC (Enterococcus) | IC50 (HepG2) | MIC (Enterococcus faecalis [5]) | MIC (Acinetobacter baumannii [6]) | MIC (Staphylococcus aureus [8]) | MIC (Staphylococcus aureus [9]) | MIC [10] | MIC (Escherichia coli [12]) | MIC (Escherichia coli [13]) | MIC (Enterococcus faecalis [14]) | MIC (Acinetobacter baumannii [15]) | IC50 (HCT-116) | MIC (Staphylococcus aureus [16]) | MIC (Staphylococcus aureus [18]) | inhibition [23] | other results
Nc1nc(N)c2c(ccc3c2ccn3Cc2cccc3ccccc23)n1 | ≤ 0.03 µg/mL | 460 nM | ≤ 0.03 µg/mL | 1010 nM | ≤ 0.03 µg/mL | ≤ 0.03 µg/mL | 520 nM | 0.125 µg/mL (≈ 0.368 µM) | 1 µg/mL | 0.06 µg/mL (≈ 0.177 µM) | ≤ 0.03 µg/mL | 1 µg/mL (≈ 2.95 µM) | > 64 µg/mL | 1 µg/mL (≈ 2.95 µM) | ≤ 0.03 µg/mL | 1 µg/mL (≈ 2.95 µM) | > 10000 nM | ≤ 0.03 µg/mL | 0.125 µg/mL (≈ 0.368 µM) | 83.9% | MIC (Klebsiella pneumoniae [4]): 4 µg/mL; MIC (Klebsiella pneumoniae [7]): 4 µg/mL; MIC (Acinetobacter baumannii [11]): 32 µg/mL (≈ 94.3 µM); MIC (Escherichia coli [17]): > 64 µg/mL; MIC (Pseudomonas aeruginosa): > 64 µg/mL; MIC (Staphylococcus aureus [19]): ≤ 0.03 µg/mL; MIC (Acinetobacter baumannii [20]): 2 µg/mL (≈ 5.89 µM); MIC (Staphylococcus aureus [21]): ≤ 0.03 µg/mL; MIC (Staphylococcus aureus [22]): 0.06 µg/mL (≈ 0.177 µM)
Nc1nc(N)c2c(ccc3c2ccn3Cc2ccc(C(=O)O)c3ccccc23)n1 |  | > 10000 nM |  | > 10000 nM |  |  | > 10000 nM | 2 µg/mL (≈ 5.22 µM) |  | 2 µg/mL (≈ 5.22 µM) |  | 0.5 µg/mL (≈ 1.3 µM) |  | > 8 µg/mL |  | > 32 µg/mL | > 10000 nM |  | 2 µg/mL (≈ 5.22 µM) | 93.5% | 
C[C@H]1COc2c(N3CCN(C)CC3)c(F)cc3c(=O)c(C(=O)O)cn1c23 [LEVOFLOXACIN ANHYDROUS] | 0.25 µg/mL (≈ 0.692 µM) |  | 2 µg/mL (≈ 5.53 µM) |  | 64 µg/mL (≈ 177 µM) | 1 µg/mL (≈ 2.77 µM) |  |  | 0.25 µg/mL | 0.25 µg/mL (≈ 0.692 µM) | 0.25 µg/mL (≈ 0.692 µM) |  | 8 µg/mL (≈ 22.1 µM) | ≤ 0.03 µg/mL | 1 µg/mL (≈ 2.77 µM) |  |  | 32 µg/mL (≈ 88.6 µM) |  |  | MIC (Escherichia coli [17]): 32 µg/mL (≈ 88.6 µM); MIC (Staphylococcus aureus [19]): 0.25 µg/mL (≈ 0.692 µM); MIC (Acinetobacter baumannii [20]): ≤ 0.03 µg/mL; MIC (Staphylococcus aureus [21]): 16 µg/mL (≈ 44.3 µM); MIC (Staphylococcus aureus [22]): 64 µg/mL (≈ 177 µM)
Nc1nc(N)c2c(ccc3c2ccn3Cc2cc3ccccc3o2)n1 |  | 1000 nM |  | 590 nM |  |  | 1070 nM | 0.25 µg/mL (≈ 0.759 µM) |  | 0.25 µg/mL (≈ 0.759 µM) |  | ≤ 0.004 µg/mL |  | 0.25 µg/mL (≈ 0.759 µM) |  | 32 µg/mL (≈ 97.2 µM) | 4800 nM |  | 0.25 µg/mL (≈ 0.759 µM) | 29.1% | 
Nc1nc(N)c2c(ccc3c2ccn3Cc2cccc3cccnc23)n1 | ≤ 0.03 µg/mL | 1450 nM | ≤ 0.03 µg/mL | 1710 nM | ≤ 0.03 µg/mL | ≤ 0.03 µg/mL | 1220 nM | 0.06 µg/mL (≈ 0.176 µM) | 2 µg/mL | ≤ 0.03 µg/mL | ≤ 0.03 µg/mL | 1 µg/mL (≈ 2.94 µM) | > 64 µg/mL | 0.5 µg/mL (≈ 1.47 µM) | ≤ 0.03 µg/mL | 2 µg/mL (≈ 5.88 µM) | > 10000 nM | ≤ 0.03 µg/mL | 0.25 µg/mL (≈ 0.734 µM) | 38.7% | MIC (Klebsiella pneumoniae [4]): 16 µg/mL; MIC (Klebsiella pneumoniae [7]): 16 µg/mL; MIC (Acinetobacter baumannii [11]): 64 µg/mL (≈ 188 µM); MIC (Escherichia coli [17]): > 64 µg/mL; MIC (Pseudomonas aeruginosa): > 64 µg/mL; MIC (Staphylococcus aureus [19]): ≤ 0.03 µg/mL; MIC (Acinetobacter baumannii [20]): 2 µg/mL (≈ 5.88 µM); MIC (Staphylococcus aureus [21]): ≤ 0.03 µg/mL; MIC (Staphylococcus aureus [22]): 0.06 µg/mL (≈ 0.176 µM)
